This note sets out measurements from ChEMBL document CHEMBL5154829, “Discovery and biological evaluation of tanshinone derivatives as potent dual inhibitors of indoleamine 2, 3-dioxygenase 1 and tryptophan 2, 3-dioxygenase” (Eur J Med Chem, 2022).

Calls of active or inactive are those of the source. The calls are words filed in the database; no cut-off is given here.

The target in data set [1] is T1, Indoleamine 2,3-dioxygenase 1 (Homo sapiens, UniProt P14902). The data set can be described thus: Inhibition of recombinant human IDO1 assessed as reduction in N-formylkynurenine formation using L-tryptophan as substrate and measured after 15 mins.
Target sequence in this assay (P14902 whole entry): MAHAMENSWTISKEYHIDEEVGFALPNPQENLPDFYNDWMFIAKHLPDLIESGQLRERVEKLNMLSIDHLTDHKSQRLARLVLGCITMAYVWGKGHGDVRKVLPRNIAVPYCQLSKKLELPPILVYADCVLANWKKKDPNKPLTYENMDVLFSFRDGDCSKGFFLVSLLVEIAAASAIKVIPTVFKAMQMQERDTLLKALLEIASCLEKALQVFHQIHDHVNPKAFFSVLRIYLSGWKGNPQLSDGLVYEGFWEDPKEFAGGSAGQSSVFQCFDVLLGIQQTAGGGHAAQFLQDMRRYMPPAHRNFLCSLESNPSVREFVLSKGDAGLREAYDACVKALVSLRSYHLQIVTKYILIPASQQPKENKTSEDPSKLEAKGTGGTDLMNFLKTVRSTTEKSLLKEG
Data set [2] concerns the target T2, Tryptophan 2,3-dioxygenase (Homo sapiens, UniProt P48775). The data set can be described thus: Inhibition of recombinant human TDO assessed as reduction in N-formylkynurenine formation using L-tryptophan as substrate and measured after 15 mins.
Target sequence in this assay (P48775 whole entry): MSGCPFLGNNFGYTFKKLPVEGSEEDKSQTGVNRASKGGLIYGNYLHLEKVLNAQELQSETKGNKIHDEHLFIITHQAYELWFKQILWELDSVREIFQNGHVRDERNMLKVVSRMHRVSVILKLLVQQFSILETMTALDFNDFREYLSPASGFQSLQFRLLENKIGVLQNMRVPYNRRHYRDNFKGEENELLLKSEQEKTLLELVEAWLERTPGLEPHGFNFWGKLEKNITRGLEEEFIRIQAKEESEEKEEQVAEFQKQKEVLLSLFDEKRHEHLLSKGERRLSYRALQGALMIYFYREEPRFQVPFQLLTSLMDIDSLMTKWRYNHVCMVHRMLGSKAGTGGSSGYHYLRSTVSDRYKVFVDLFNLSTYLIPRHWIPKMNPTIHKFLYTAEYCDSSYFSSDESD
In data set [3] the test system is HeLa. The data set can be described thus: Induction of apoptosis in human HeLa cells assessed as increase in Bax expression at 1 to 10 uM measured by western blot analysis. The settings on record: dose 1-10 µM. The class given is functional, cell-based.
The test system of data set [4] is HeLa. Nature of the data set: Induction of apoptosis in human HeLa cells assessed apoptotic cells at 10 uM measured after 24 hrs by Annexin V-FITC/PI based flow cytometry analysis. The class given is functional.
Data set [5] concerns HeLa. The data set can be described thus: Induction of apoptosis in human HeLa cells assessed apoptotic cells at 5 uM measured after 6 hrs by Annexin V-FITC/PI based flow cytometry analysis. The class given is functional, cell-based.
The test system of data set [6] is HeLa. Nature of the data set: Induction of apoptosis in IFNgamma-stimulated human HeLa cells assessed apoptotic cells at 5 uM measured after 12 hrs by Annexin V-FITC/PI based flow cytometry analysis. The class given is functional.
The target of data set [7] is T2, Tryptophan 2,3-dioxygenase. The data set can be described thus: Competitive inhibition of recombinant human TDO measured by UV/visible spectrophotometric method.
Target sequence in this assay (P48775 whole entry, looked up): as the sequence (P48775 whole entry) above
Data set [8] concerns HeLa. The data set can be described thus: Induction of apoptosis in human HeLa cells assessed as decrease in Bcl-2 expression at 1 to 10 uM measured by western blot analysis. The class given is functional, cell-based. The following applies: dose 1-10 µM.
The target of data set [9] is T2, Tryptophan 2,3-dioxygenase. Nature of the data set: Competitive inhibition of recombinant human TDO measured by surface plasmon resonance assay.
Target sequence in this assay (P48775 whole entry): as above
Data set [10] in a line: Cytotoxicity against human HEK-293T cells. The class given is toxicity, cell-based.
Data set [11] concerns the target T1, Indoleamine 2,3-dioxygenase 1. The data set can be described thus: Non-competitive inhibition of recombinant human IDO1 measured by UV/visible spectrophotometric method.
Target sequence in this assay (P14902 whole entry, looked up): as the sequence (P14902 whole entry) above
Data set [12] has as its target T2, Tryptophan 2,3-dioxygenase. Nature of the data set: Inhibition of TDO in human HEK293 cells assessed as reduction in kynurenine formation using L-tryptophan as substrate by absorbance based analysis. The class given is cell-based.
Target sequence in this assay (P48775 whole entry): as the sequence (P48775 whole entry) above
For data set [13], the system named is HeLa. Nature of the data set: Induction of apoptosis in human HeLa cells assessed as increase in Bax/Bcl-2 ratio at 1 to 10 uM measured by western blot analysis. The class given is functional, cell-based. The settings on record: dose 1-10 µM.
A short description of data set [14]: Hemolytic activity in rat RBC at 500 uM incubated for 30 mins. The class given is toxicity, cell-based, Erythrocyte. The following applies: rat red blood cells (erythrocytes), read-out: Activity.
Data set [15] has as its target T1, Indoleamine 2,3-dioxygenase 1. The data set can be described thus: Non-competitive inhibition of recombinant human IDO1 measured by surface plasmon resonance assay.
Target sequence in this assay (P14902 whole entry): as the sequence (P14902 whole entry) above
The subject of data set [16] is HeLa. Nature of the data set: Induction of apoptosis in human HeLa cells assessed apoptotic cells at 5 uM measured after 12 hrs by Annexin V-FITC/PI based flow cytometry analysis. The class given is functional.
Data set [17] concerns the target T1, Indoleamine 2,3-dioxygenase 1. Nature of the data set: Inhibition of IDO1 in IFNgamma-stimulated human HeLa cells assessed as reduction in kynurenine formation using L-tryptophan as substrate by absorbance based analysis. The class given is cell-based.
Target sequence in this assay (P14902 whole entry): as above

For the compound `C[C@H]1COC2=C1C(=O)C(=O)c1c2ccc2c1CCCC2(C)C` [CRYPTOTANSHINONE], the IC50 in data set [1] was 10000 nM; in data set [2] it was 9800 nM.

For the compound `CC(=O)OCc1coc2c1C(=O)C(=O)c1c-2ccc2c1C=CC(=O)C2(C)C`, the result in data set [3], in data set [5], in data set [8] and in data set [13] was Active. Also, the Activity in data set [4] is listed as 92.8%; in data set [6] it was 68.6%; in [16], 39.9%. For the same compound, the IC50 in data set [1] is 70 nM; in data set [10], greater than 10000 nM; in data set [12] it was 1870 nM; in [2], 160 nM; in data set [17] it was 270 nM. The inhibition entry in data set [7] and in [11] was “Active” each time. The Ki in [9] came to 730 nM; in [15], 230 nM. The hemolysis at 0.5 h, 500 µM in data set [14] was 10%.

As to `Cc1c[nH]c2c1C(=O)C(=O)c1c-2ccc2c1CCCC2(C)C`, the IC50 in [1] and in [2] was greater than 10000 nM in each case.

As to `Cc1coc2c1C(=O)C(=O)c1c-2ccc2c1C(=O)C(O)=CC2(C)C`, the IC50 was 2880 nM in data set [1], greater than 10000 nM in [12], 1010 nM in data set [2] and greater than 10000 nM in data set [17].

On to `C[C@@H](C=O)C1=C(O)C(=O)c2c(ccc3c2CCCC3(C)C)C1=O`, for which the IC50 in data set [1] and in [2] was greater than 10000 nM in each case.

In the case of `Cc1coc2c1C(=O)C(=O)c1c-2ccc2c1CCCC2(C)C` [TANSHINONE IIA], the IC50 in [1] and in [2] was greater than 10000 nM each time.

As for `Cc1coc2c1C(=O)C(=O)c1c-2ccc2c1C(=O)C(O)CC2(C)C` (configuration not stated), the IC50 in [1] is 490 nM; in data set [12] it was greater than 10000 nM; in data set [2], 1480 nM; in [17] it was greater than 10000 nM.

Regarding `CC(=O)O[C@H]1CCc2c(ccc3c2C(=O)C(=O)c2c(C)coc2-3)C1(C)C`, the IC50 in data set [1] is 400 nM; in data set [12], 2800 nM; in data set [2], 370 nM; in data set [17] it was greater than 10000 nM.

Regarding `CC1(C)C(=O)C=Cc2c1ccc1c2C(=O)C(=O)c2c(CO)coc2-1`, the IC50 in data set [1] stood at 220 nM; in data set [12], 1420 nM; in [2], 450 nM; in data set [17] it was 2560 nM.

On to `Cc1coc2c1C(=O)C(=O)c1c-2ccc2c1CC[C@H](O)C2(C)C`, for which the IC50 in data set [1] is 5120 nM; in [12] it was greater than 10000 nM; in [2] it was 2700 nM; in data set [17], greater than 10000 nM.

Regarding `NS(=O)(=O)NCCNc1nonc1C(=NO)Nc1ccc(F)c(Br)c1` [EPACADOSTAT], the results for the IC50 in [12] and in [2] were 10400 nM and 16100 nM, respectively.

With `CC(=O)OCc1coc2c1C(=O)C(=O)c1c-2ccc2c1CC[C@H](O)C2(C)C`, the IC50 came out at 670 nM in data set [1], 2060 nM in data set [12], 2420 nM in data set [2] and 2420 nM in data set [17].

As to `Cc1coc2c1C(=O)C(=O)c1c-2ccc2c1CC[C@H](OS(C)(=O)=O)C2(C)C`, the IC50 in data set [1] is 810 nM; in [12], greater than 10000 nM; in [2], 1210 nM; in [17] it was 5100 nM.

In the case of `CC1(C)C(=O)C=Cc2c1ccc1c2C(=O)C(=O)c2c(CF)coc2-1`, the IC50 was determined as 420 nM in [1], 730 nM in data set [12], 570 nM in data set [2] and 650 nM in data set [17].

Regarding `CCN(CC)C(=O)c1coc2c1C(=O)C(=O)c1c-2ccc2c1C=CC(=O)C2(C)C`, the 50% inhibitory concentration (IC50) in [1] is 3270 nM; in data set [12], greater than 10000 nM; in data set [2], 9540 nM; in data set [17] it was greater than 10000 nM.

Take `CC1(C)CCCc2c1ccc1c2C(=O)C(=O)c2c(CO)coc2-1` [PRZEWAQUINONE A]: the IC50 in data set [1] was 1070 nM; in [12], 7180 nM; in data set [2], 450 nM; in data set [17] it was greater than 10000 nM.

Turning to `CC1(C)C(=O)CCc2c1ccc1c2C(=O)C(=O)c2c(CO)coc2-1`, the IC50 in data set [1] turned out to be 160 nM; in [12], 3130 nM; in data set [2] it was 200 nM; in [17], 450 nM.

`CC(=O)O[C@H]1CCc2c(ccc3c2C(=O)C(=O)c2c(CO)coc2-3)C1(C)C`: the IC50 stood at 750 nM in data set [1], 1910 nM in data set [12], 1840 nM in [2] and 1870 nM in data set [17].

Turning to `CC1(C)C(=O)C=Cc2c1ccc1c2C(=O)C(=O)c2c(C=O)coc2-1`, the IC50 in [1] and in [2] was greater than 10000 nM throughout.

As to `CC1(C)C(=O)C=Cc2c1ccc1c2C(=O)C(=O)c2c(C(=O)O)coc2-1`, the IC50 in [1] is 4570 nM; in [12] it was greater than 10000 nM; in [2], greater than 10000 nM; in [17], 8550 nM.

For `COC(=O)c1coc2c1C(=O)C(=O)c1c-2ccc2c1C=CC(=O)C2(C)C`, the IC50 in data set [1] and in [2] was greater than 10000 nM throughout.

As for `Cc1coc2c1c(=O)oc(=O)c1c3c(ccc12)C(C)(C)CCC3`, the IC50 in [1] and in data set [2] was greater than 10000 nM throughout.

With `CC(=O)OCc1coc2c1C(=O)C(=O)c1c-2ccc2c1CCC(=O)C2(C)C`, the IC50 is 1730 nM in data set [1], 860 nM in data set [12], 670 nM in [2] and 810 nM in data set [17].

Regarding `CC1(C)c2ccc3c(c2CC[C@@H]1O)C(=O)C(=O)c1c(CO)coc1-3`, the IC50 in [1] was 590 nM; in [12], 950 nM; in data set [2] it was 1010 nM; in [17], 1670 nM.

In the case of `Cc1coc2c1C(=O)C(=O)c1c-2ccc2c1C(Br)CCC2(C)C` (configuration not stated), the IC50 in data set [1] is 1500 nM; in data set [12], 8100 nM; in data set [2], 710 nM; in [17] it was greater than 10000 nM.

In the case of `Cc1coc2c1C(=O)C(=O)c1c-2ccc2c1C=CC(=O)C2(C)C`, the half-inhibitory concentration (IC50) in data set [1] was 980 nM; in data set [12] it was greater than 10000 nM; in [2], 960 nM; in data set [17], 9330 nM.

As to `Cc1coc2c1C(=O)C(=O)c1c-2ccc2c1C=CCC2(C)C`, the IC50 in data set [1] and in data set [2] was greater than 10000 nM each time.

Consider `Cc1coc2c1C(=O)C(=O)c1c-2ccc2c1CCC(=O)C2(C)C`, for which the half-maximal inhibitory concentration (IC50) is 360 nM in data set [1], greater than 10000 nM in data set [12], 940 nM in [2] and greater than 10000 nM in [17].

For the compound `CC(=O)Oc1c(OC(C)=O)c2c(C)coc2c2ccc3c(c12)CCCC3(C)C`, the IC50 in [1] and in [2] was greater than 10000 nM throughout.

Turning to `Cc1c(Br)oc2c1C(=O)C(=O)c1c-2ccc2c1CCCC2(C)C`, the IC50 in data set [1] and in data set [2] was greater than 10000 nM throughout.

Take `C[C@@H](CO)C1=C(O)C(=O)c2c(ccc3c2CCCC3(C)C)C1=O`: the IC50 in [1] and in data set [2] was greater than 10000 nM throughout.

`CC1(C)C(=O)C=Cc2c1ccc1c2C(=O)C(=O)c2c(CCl)coc2-1`: the IC50 in data set [1] was determined as 140 nM; in data set [12], 340 nM; in data set [2] it was 110 nM; in [17] it was 680 nM.
